Measured values published in patent US20030078251A1, “Benzoxazepinones and their use as squalene synthase inhibitors” (priority 2000, published 2003).

melting point [°C] | SMILES
239 to 241 | COc1cccc([C@H]2O[C@H](CC(=O)Nc3ncc(CC(=O)O)s3)C(=O)N(CC(C)(C)CO)c3ccc(Cl)cc32)c1OC [Example 143, [2-[[[(3R,5S)-7-Chloro-5-(2,3-dimethoxyphenyl)-1-(3-hydroxy-2,2-dimethylpropyl)-2-oxo-1,2,3,5-tetrahydro-4,1-benzoxazepin-3-yl]acetyl]amino]-1,3-thiazol-5-yl]acetic acid]
155 to 157 | COc1cccc([C@H]2O[C@H](CC(=O)NCCc3oc(C(=O)O)cc3C(=O)O)C(=O)N(CC(C)(C)CO)c3ccc(Cl)cc32)c1OC [Example 28, 5-[2-[[[(3R,5S)-7-chloro-5-(2,3-dimethoxyphenyl)-1(2,2-dimethyl-3-hydroxypropyl)-2-oxo-1,2,3,5-tetrahydro-4,1-benzoxazepin-3-yl]acetyl]amino]ethyl]furan-2,4-dicarboxylic acid]
155 to 158 | COc1cccc([C@H]2O[C@H](CC(=O)Nc3ccc(C(=O)O)o3)C(=O)N(CC(C)(C)CO)c3ccc(Cl)cc32)c1OC [Example 94, 5-[[(3R,5S)-7-Chloro-5-(2,3-dimethoxyphenyl)-1-(3-hydroxy-2,2-dimethylpropyl)-2-oxo-1,2,3,5-tetrahydro-4,1-benzoxazepin-3-yl]acetyl]amino-2-furancarboxylic acid]
215 to 216 | COc1ccc(CC(=O)O)cc1NC(=O)C[C@H]1O[C@H](c2cccc(OC)c2OC)c2cc(Cl)ccc2N(CC(C)(C)CO)C1=O [Example 109]
138 to 139 | COc1cccc([C@H]2O[C@H](CC(=O)NCCCOc3ccc(C(=O)O)cc3)C(=O)N(CC(C)(C)CO)c3ccc(Cl)cc32)c1OC [Example 98]
246 to 248 | COc1cccc([C@H]2O[C@H](CC(=O)Nc3c(C)c(C)c4oc(C(=O)O)cc4c3C)C(=O)N(CC(C)(C)CO)c3ccc(Cl)cc32)c1OC [Example 164, 5-[[[(3R,5S)-7-Chloro-5-(2,3-dimethoxyphenyl)-1-(3-hydroxy-2,2-dimethylpropyl)-2-oxo-1,2,3,5-tetrahydro-4,1-benzoxazepin-3-yl]acetyl]amino]-4,6,7-trimethyl-1-benzofuran-2-carboxylic acid]
133 to 135 | COc1cccc([C@H]2O[C@H](CC(=O)NS(=O)(=O)CCCO)C(=O)N(CC(C)(C)CO)c3ccc(Cl)cc32)c1OC [Example 6, (3R,5S)-N-(3-hydroxypropyl)sulfonyl-7-chloro-5-(2,3-dimethoxyphenyl)-1-(3-hydroxy-2,2-dimethylpropyl)-2-oxo-1,2,3,5-tetrahydro-4,1-benzoxazepine-3-acetamide]
188 to 189 | CCc1cc(NC(=O)C[C@H]2O[C@H](c3cccc(OC)c3OC)c3cc(Cl)ccc3N(CC(C)(C)CO)C2=O)cc2cc(C(=O)O)oc12 [Example 162, 5-[[2-[(3R,5S)-7-Chloro-5-(2,3-dimethoxyphenyl)-1-(3-hydroxy-2,2-dimethylpropyl)-2-oxo-1,2,3,5-tetrahydro-4,1-benzoxazepin-3-yl]acetyl]amino]-7-ethyl-1-benzofuran-2-carboxylic acid]
119 to 121 | COc1cccc([C@H]2O[C@H](CC(=O)Nc3cccc(OC(F)(F)C(=O)O)c3)C(=O)N(CC(C)(C)CO)c3ccc(Cl)cc32)c1OC [Example 133, 2-[3-[[[(3R,5S)-7-Chloro-5-(2,3-dimethoxyphenyl)-1-(3-hydroxy-2,2-dimethylpropyl)-2-oxo-1,2,3,5-tetrahydro-4,1-benzoxazepin-3-yl]acetyl]amino]phenyloxy]-2,2-difluoroacetic acid]
178 to 179 | COc1cccc([C@H]2O[C@H](CC(=O)Nc3cc4c(c(C(=O)O)c3)CCCC4)C(=O)N(CC(C)(C)CO)c3ccc(Cl)cc32)c1OC [Example 112, 3-[[[(3R,5S)-7-Chloro-5-(2,3-dimethoxyphenyl)-1-(3-hydroxy-2,2-dimethylpropyl)-2-oxo-1,2,3,5-tetrahydro-4,1-benzoxazepin-3-yl]acetyl]amino]-5,6,7,8-tetrahydro-1-naphthoic acid]
125 to 128 | COc1cccc([C@H]2O[C@H](CC(=O)NCCCOc3ccc(CC(=O)O)cc3)C(=O)N(CC(C)(C)CO)c3ccc(Cl)cc32)c1OC [Example 96, 4-[3-[[(3R,5S)-7-Chloro-5-(2,3-dimethoxyphenyl)-1-(3-hydroxy-2,2-dimethylpropyl)-2-oxo-1,2,3,5-tetrahydro-4,1-benzoxazepin-3-yl]acetyl]aminopropyloxy]phenylacetic acid]
181 to 181.5 | CCOc1cc(NC(=O)C[C@H]2O[C@H](c3cccc(OC)c3OC)c3cc(Cl)ccc3N(CC(C)(C)CO)C2=O)cc2cc(C(=O)O)oc12 [Example 150, 5-[[[(3R,5S)-7-chloro-5-(2,3-dimethoxyphenyl)-1-(3-hydroxy-2,2-dimethylpropyl)-2-oxo-1,2,3,5-tetrahydro-4,1-benzoxazepin-3-yl]acetyl]amino]-7-ethoxy-1-benzofuran-2-carboxylic acid]
119 to 121 | COc1ccc(CCCC(=O)O)cc1NC(=O)C[C@H]1O[C@H](c2cccc(OC)c2OC)c2cc(Cl)ccc2N(CC(C)(C)CO)C1=O [Example 110, 4-[3-[[[(3R,5S)-7-Chloro-5-(2,3-dimethoxyphenyl)-1-(3-hydroxy-2,2-dimethylpropyl)-2-oxo-1,2,3,5-tetrahydro-4,1-benzoxazepin-3-yl]acetyl]amino]-4-methoxyphenyl]butanoic acid]
128 to 130 | COc1cccc([C@H]2O[C@H](CC(=O)NCCCC(=O)O)C(=O)N(CC(C)(C)C)c3ccc(Cl)cc32)c1OC [Example 70, 4-[[(3R,5S)-7-chloro-5-(2,3-dimethoxyphenyl)-1-neopentyl-2-oxo-1,2,3,5-tetrahydro-4,1-benzoxazepin-3-yl]acetyl]aminobutanoic acid]
143 to 144 | COc1cccc([C@H]2O[C@H](CC(=O)NCc3ccc(C(=O)O)cc3)C(=O)N(CC(C)(C)CO)c3ccc(Cl)cc32)c1OC [Example 75, 4-[[(3R,5S)-7-Chloro-5-(2,3-dimethoxyphenyl)-1-(3-hydroxy-2,2-dimethylpropyl)-2-oxo-1,2,3,5-tetrahydro-4,1-benzoxazepin-3-yl]acetyl]aminomethylbenzoic acid]
171 to 172 | COc1cccc([C@H]2O[C@H](CC(=O)Nc3ccc4oc(C(=O)O)cc4c3)C(=O)N(CC(C)(C)CO)c3ccc(Cl)cc32)c1OC [Example 81, 5-[[[(3R,5S)-7-Chloro-5-(2,3-dimethoxyphenyl)-1-(3-hydroxy-2,2-dimethylpropyl)-2-oxo-1,2,3,5-tetrahydro-4,1-benzoxazepin-3-yl]acetyl]amino]benzofuran-2-carboxylic acid]
277.3 to 277.9 | COc1cccc([C@H]2O[C@H](CC(=O)Nc3nc(C(=O)O)cs3)C(=O)N(CC(C)(C)CO)c3ccc(Cl)cc32)c1OC [Example 142, 2-[[[(3R,5S)-7-Chloro-5-(2,3-dimethoxyphenyl)-1-(3-hydroxy-2,2-dimethylpropyl)-2-oxo-1,2,3,5-tetrahydro-4,1-benzoxazepin-3-yl]acetyl]amino]-1,3-thiazole-4-carboxylic acid]
194 to 195 | COc1cccc([C@H]2O[C@H](CC(=O)Nc3ccc(CCCC(=O)O)cc3)C(=O)N(CC(C)(C)CO)c3ccc(Cl)cc32)c1OC [Example 68, 4-[4-[[[(3R,5S)-7-chloro-5-(2,3-dimethoxyphenyl)-1-(3-hydroxy-2,2-dimethylpropyl)-2-oxo-1,2,3,5-tetrahydro-4,1-benzoxazepin-3-yl]acetyl]amino]phenyl]butanoic acid]
203 to 205 | COc1cccc([C@H]2O[C@H](CC(=O)Nc3ncc(CCC(=O)O)s3)C(=O)N(CC(C)(C)CO)c3ccc(Cl)cc32)c1OC [Example 144, 3-[2-[[[(3R,5S)-7-Chloro-5-(2,3-dimethoxyphenyl)-1-(3-hydroxy-2,2-dimethylpropyl)-2-oxo-1,2,3,5-tetrahydro-4,1-benzoxazepin-3-yl]acetyl]amino]-1,3-thiazol-5-yl]propionic Acid]
171 to 174 | COc1cccc([C@H]2O[C@H](CC(=O)Nc3cccc4c(C(=O)O)cccc34)C(=O)N(CC(C)(C)CO)c3ccc(Cl)cc32)c1OC [Example 129, 5-[[2-[(3R,5S)-7-Chloro-5-(2,3-dimethoxyphenyl)-1-(3-hydroxy-2,2-dimethylpropyl)-2-oxo-1,2,3,5-tetrahydro-4,1-benzoxazepin-3-yl]acetyl]amino]-1-naphthoic acid]
174.2 to 174.9 | COc1cccc([C@H]2O[C@H](CC(=O)Nc3ccc4oc(C(=O)O)c(OC(C)C)c4c3)C(=O)N(CC(C)(C)CO)c3ccc(Cl)cc32)c1OC [Example 156, 5-[[[(3R,5S)-7-chloro-5-(2,3-dimethoxyphenyl)-1-(3-hydroxy-2,2-dimethylpropyl)-2-oxo-1,2,3,5-tetrahydro-4,1-benzoxazepin-3-yl]acetyl]amino]-3-[(1-methylethyl)oxy]-1-benzofuran-2-carboxylic acid]
142 to 143 | COc1cccc([C@H]2O[C@H](CC(=O)N[C@H](CCSC)C(=O)O)C(=O)N(CC(C)(C)CO)c3ccc(Cl)cc32)c1OC [Example 16, N-[[(3R,5S)-7-chloro-5-(2,3-dimethoxyphenyl)-1-(3-hydroxy-2,2-dimethylpropyl)-2-oxo-1,2,3,5-tetrahydro-4,1-benzoxazepin-3-yl]acetyl]-D-methionine]
209 to 211 | COc1cccc([C@H]2O[C@H](CC(=O)NCCc3ccc(OC(C)(C)C(=O)O)cc3)C(=O)N(CC(C)(C)CO)c3ccc(Cl)cc32)c1OC [Example 77, α-[4-[2-[[(3R,5S)-7-Chloro-5-(2,3-dimethoxyphenyl)-1-(3-hydroxy-2,2-dimethylpropyl)-2-oxo-1,2,3,5-tetrahydro-4,1-benzoxazepin-3-yl]acetyl]aminoethyl]phenyloxy]isobutanoic acid]

SMILES | melting point [°C]
COc1cccc([C@H]2O[C@H](CC(=O)Nc3cccc(C(=O)O)c3C)C(=O)N(CC(C)(C)COC(C)=O)c3ccc(Cl)cc32)c1OC [Example 44, 3-[[[(3R,5S)-1-(3-acetoxy-2,2-dimethylpropyl)-7-chloro-5-(2,3-dimethoxyphenyl)-2-oxo-1,2,3,5-tetrahydro-4,1-benzoxazepin-3-yl]acetyl]amino]-2-metylbenzoic acid] | 139 to 142
